From US7491793B2 (priority 2003, dated 2009)
Entries after “also recorded” stand apart in the source; their conditions may differ.

What was measured:
[1] = system: mouse hepatitis virus strain A59; format: cell-based, Mouse hepatitis virus (MHV) strain A59
[2] = system: SARS coronavirus strain Urbani; format: cell-based, SARS CoV strain Urbani or HK
HIV-1 virion:cell fusion = conditions: read-out: concentration giving 50% inhibition of HIV-1 virion:cell fusion; cited from earlier work
HIV-1 = conditions: 100 mg/day, clinical trial, infected individuals; cited from earlier work
Lassa fever = conditions: only if administered early (up to six days) in the course of illness; cited from earlier work

| Compound | inhibition of plaque formation by MHV [1] | inhibition of plaque formation by SARS CoV [2] | other results |
| --- | --- | --- | --- |
| MFPPWSAAAGVPFSLSVQY [SEQ ID NO:26] | some inhibition |  |  |
| AACEVAKNLNESLIDLQELGKYEQYIKW [SEQ ID NO:29] |  | some inhibition |  |
| enfuvirtide |  |  | IC50 (HIV-1 virion:cell fusion): 1.7 nM; reduction in plasma HIV-1 load (HIV-1): approximately 100 fold |
| GVFVFNGTSWFITQRNFFS [SEQ ID NO:25] |  | inhibited plaque formation |  |
| GYFVQDDGEWKFTGSSYYY [SEQ ID NO:23, synthetic peptide from the MHV FIR] | can inhibit plaque formation by MHV |  |  |
| NC(=O)c1ncn([C@@H]2O[C@H](CO)[C@@H](O)[C@H]2O)n1 [ribavirin] |  |  | efficacy in the treatment of Lassa fever (Lassa fever): effective |
| GYHLMSFPQAAPHGVVFLHVTY [SEQ ID NO:24] |  | inhibited plaque formation |  |
| MYKTPTLKYFGGFNFSQIL [SEQ ID NO:28] |  | some inhibition |  |
| GNHILSLVQNAPYGLYFIHFSW [SEQ IDS NO:22] | can inhibit plaque formation by MHV; also recorded: more efficient |  |  |
| QDAIKKLNESYINLKEVGTYEMYVKW [SEQ ID NO:27, peptide from the carboxyl terminal helix of MHV S] | some inhibition |  |  |
